According to PubChem BioAssay AID330 (DTP/NCI, 2004):
Where “and” joins values, the source holds several entries; their conditions need not be identical. Equal values may be shown once. Inconclusive results and toxic doses are left out.

System: P388 leukemia ip, CD2F1 mice, survival T/C
Test: NCI In Vivo Anticancer Drug Screen. Data for tumor model P388 Leukemia (intraperitoneal) in CD2F1 (CDF1) mice
Conditions: endpoint: median survival time, higher = longer survival
In short: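 Mice carrying the transplanted tumor received test compound or vehicle. Survival was recorded in each group, and the value is the treated-group measurement divided by that of the vehicle-treated control group.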

[1] = dose: 100.0 mg/kg/injection, schedule: Q04DX003 (ip), vehicle: saline with Tween-80
[2] = dose: 200.0 mg/kg/injection, schedule: Q04DX003 (ip), vehicle: saline with Tween-80
[3] = dose: 400.0 mg/kg/injection, schedule: Q04DX003 (ip), vehicle: saline with Tween-80
[4] = dose: 50.0 mg/kg/injection, schedule: Q01DX009 (ip), vehicle: Klucel (hydroxypropylcellulose) (HPC)
[5] = dose: 100.0 mg/kg/injection, schedule: Q01DX009 (ip), vehicle: Klucel (hydroxypropylcellulose) (HPC)
[6] = dose: 100.0 mg/kg/injection, schedule: Q04DX003 (ip), vehicle: saline
[7] = dose: 50.0 mg/kg/injection, schedule: Q01DX005 (ip), vehicle: Klucel (hydroxypropylcellulose) (HPC)
[8] = dose: 100.0 mg/kg/injection, schedule: Q01DX005 (ip), vehicle: Klucel (hydroxypropylcellulose) (HPC)
[9] = dose: 200.0 mg/kg/injection, schedule: Q01DX005 (ip), vehicle: Klucel (hydroxypropylcellulose) (HPC)
[10] = dose: 50.0 mg/kg/injection, schedule: Q01DX005 (ip), vehicle: saline with Tween-80
[11] = dose: 100.0 mg/kg/injection, schedule: Q01DX005 (ip), vehicle: saline with Tween-80
[12] = dose: 200.0 mg/kg/injection, schedule: Q01DX005 (ip), vehicle: saline with Tween-80
[13] = dose: 25.0 mg/kg/injection, schedule: Q04DX003 (ip), vehicle: saline with Tween-80
[14] = dose: 50.0 mg/kg/injection, schedule: Q04DX003 (ip), vehicle: saline with Tween-80
[15] = dose: 60.0 mg/kg/injection, schedule: Q01DX005 (ip), vehicle: saline with Tween-80
[16] = dose: 50.0 mg/kg/injection, schedule: Q01DX005 (ip), vehicle: saline
[17] = dose: 50.0 mg/kg/injection, schedule: Q01DX009 (ip), vehicle: saline

With `C=CCCCn1nnc2ccccc21` the T/C [1] was 102 % of control, the T/C [2] was 94 % of control and the T/C [3] was 86 % of control.
`O=C(O)CCC(=O)N(CCP(c1ccccc1)c1ccccc1)CCP(c1ccccc1)c1ccccc1` was tested, and the T/C [4] was 111 % of control and the T/C [5] was 112 % of control.
In the case of `Cc1ccc(S(=O)(=O)NN=C(c2ccccc2)c2ccccc2)cc1`, the T/C (dose: 12.5 mg/kg/injection, schedule: Q01DX009 (ip), vehicle: Klucel (hydroxypropylcellulose) (HPC)) is reported as 98 % of control, the T/C (dose: 25.0 mg/kg/injection, schedule: Q01DX009 (ip), vehicle: Klucel (hydroxypropylcellulose) (HPC)) is reported as 93 % of control and the T/C [4] is reported as 87 % of control. The T/C [5] was 88 % of control and the T/C (dose: 200.0 mg/kg/injection, schedule: Q01DX009 (ip), vehicle: Klucel (hydroxypropylcellulose) (HPC)) was 86 % of control.
With `CC1CCC2(C(=O)O)CCC3(C)C(=CCC4C5(C)CCC(O)C(C)(C)C5CCC43C)C2C1C` (centres undefined) the T/C (dose: 22.0 mg/kg/injection, schedule: Q01DX010 (ip), vehicle: acetone) was 108 % of control and the T/C (dose: 35.0 mg/kg/injection, schedule: Q01DX010 (ip), vehicle: acetone) was 95 % of control.
For `Cc1ccc(C(=O)NN2C(N)=NC(N)=NC2(C)C)cc1`, the T/C (dose: 50.0 mg/kg/injection, schedule: Q04DX003 (ip), vehicle: saline) was 100 % of control and the T/C [6] was 105 % of control.
In the case of `CCCCC(=O)Nc1ccc(S(=O)(=O)O)c(N=NC2C(=O)N(c3ccccc3)N=C2C)c1` (centres undefined), the T/C [6] is reported as 110 % of control, the T/C (dose: 200.0 mg/kg/injection, schedule: Q04DX003 (ip), vehicle: saline) is reported as 100 % of control and the T/C (dose: 400.0 mg/kg/injection, schedule: Q04DX003 (ip), vehicle: saline) is reported as 100 % of control.
With `CC1=C(N2CCOCC2)C(N2CCOCC2)C(C)C1=O` (centres undefined) the T/C [7] was 100 % of control, the T/C [8] was 101 % of control and the T/C [9] was 100 % of control.
`CN(N=O)C(=O)Nc1cc(=O)[nH]c(SCc2ccccc2)n1` was tested, and the T/C (dose: 12.5 mg/kg/injection, schedule: Q01DX005 (ip), vehicle: Klucel (hydroxypropylcellulose) (HPC)) was 104 % of control, the T/C (dose: 25.0 mg/kg/injection, schedule: Q01DX005 (ip), vehicle: Klucel (hydroxypropylcellulose) (HPC)) was 114 % of control and the T/C [7] was 124 % of control. The T/C [8] was 160 % of control.
With `CSC1=NC=C(C#N)C2=NC(c3ccccc3)NN12` (centres undefined) the T/C [10] was 98 % of control, the T/C [11] was 97 % of control and the T/C [12] was 100 % of control.
In the case of `CCOC(=O)NC(=O)CCC(=O)Nc1ccc2ccccc2c1`, the T/C [1] is reported as 97 % of control, the T/C [2] is reported as 95 % of control and the T/C [3] is reported as 96 % of control.
With `CC1(Cl)C(c2ccccc2)=[N+]([O-])[N+]([O-])=C1c1ccccc1` the T/C (dose: 100.0 mg/kg/injection, schedule: Q04DX002 (ip), vehicle: saline with Tween-80) was 112 % of control and the T/C (dose: 200.0 mg/kg/injection, schedule: Q04DX002 (ip), vehicle: saline with Tween-80) was 112 % of control.
In the case of `COc1c(Br)cc(/C=C(/C)[N+](=O)[O-])cc1Br`, the T/C [13] is reported as 112 % of control, the T/C [14] is reported as 106 % of control and the T/C [1] is reported as 122 % of control.
`Cc1nc2c(nc1C)C(=O)c1cc(O)ccc1C2=O` was tested, and the T/C [7] was 101 % of control, the T/C [8] was 104 % of control and the T/C [9] was 100 % of control.
With `c1cnn([B-]2(n3cccn3)n3ccc[n+]3[B-](n3cccn3)(n3cccn3)n3ccc[n+]32)c1` the T/C [15] was 102 % of control, the T/C (dose: 120.0 mg/kg/injection, schedule: Q01DX005 (ip), vehicle: saline with Tween-80) was 102 % of control and the T/C (dose: 240.0 mg/kg/injection, schedule: Q01DX005 (ip), vehicle: saline with Tween-80) was 100 % of control.
For `CN1C(c2ccccc2)CC(=C(C#N)c2ccccc2)CC1c1ccccc1` (centres undefined), the T/C (dose: 30.0 mg/kg/injection, schedule: Q01DX005 (ip), vehicle: Klucel (hydroxypropylcellulose) (HPC)) was 103 % of control, the T/C (dose: 60.0 mg/kg/injection, schedule: Q01DX005 (ip), vehicle: Klucel (hydroxypropylcellulose) (HPC)) was 107 % of control and the T/C (dose: 120.0 mg/kg/injection, schedule: Q01DX005 (ip), vehicle: Klucel (hydroxypropylcellulose) (HPC)) was 93 % of control. The T/C (dose: 240.0 mg/kg/injection, schedule: Q01DX005 (ip), vehicle: Klucel (hydroxypropylcellulose) (HPC)) was 104 % of control.
In the case of `N=C(N)N1CCNc2ccccc2C1`, the T/C [13] is reported as 105 % of control, the T/C [14] is reported as 99 % of control and the T/C [1] is reported as 104 % of control.
`CS(=O)(=O)OC1C(COC(=O)c2ccccc2)OC(n2ccc(=O)[nH]c2=O)C1O` (centres undefined) was tested, and the T/C [16] was 100 % of control, the T/C (dose: 100.0 mg/kg/injection, schedule: Q01DX005 (ip), vehicle: saline) was 101 % of control and the T/C (dose: 200.0 mg/kg/injection, schedule: Q01DX005 (ip), vehicle: saline) was 101 % of control.
With `O=[N+]([O-])c1cc2c(ccc3occc32)o1` the T/C [7] was 102 % of control, the T/C [8] was 97 % of control and the T/C [9] was 98 % of control.
For `CCC(=O)c1ccc(Oc2c3ccccc3nc3ccccc23)cc1`, the T/C [10] was 108 % of control, the T/C [11] was 117 % of control and the T/C [12] was 110 % of control.
With `O=C1C2C3C=CC(C3)C2C(=O)C2(CO)OC12` (centres undefined) the T/C (dose: 62.5 mg/kg/injection, schedule: Q04DX002 (ip), vehicle: saline) was 97 % of control, the T/C (dose: 125.0 mg/kg/injection, schedule: Q04DX002 (ip), vehicle: saline) was 95 % of control and the T/C (dose: 250.0 mg/kg/injection, schedule: Q04DX002 (ip), vehicle: saline) was 97 % of control.
For `CCCCCCC(/C=C/c1ccc(Cl)c(Cl)c1)=N\NC(=O)C[N+](C)(C)C`, the T/C (dose: 12.5 mg/kg/injection, schedule: Q01DX009 (ip), vehicle: saline with Tween-80) was 100 % of control, the T/C (dose: 25.0 mg/kg/injection, schedule: Q01DX009 (ip), vehicle: saline with Tween-80) was 103 % of control and the T/C [17] was 98 % of control.
In the case of `O=c1cc(O)n(C2=NCCN2)[nH]1`, the T/C (dose: 60.0 mg/kg/injection, schedule: Q01DX005 (ip), vehicle: suspension in saline) is reported as 97 % of control, the T/C (dose: 120.0 mg/kg/injection, schedule: Q01DX005 (ip), vehicle: suspension in saline) is reported as 97 % of control and the T/C (dose: 240.0 mg/kg/injection, schedule: Q01DX005 (ip), vehicle: suspension in saline) is reported as 105 % of control.
For `CC(C)CCCN(CCCC(C)C)CC(O)c1cc2c(c3ccccc13)CCCC2` (centres undefined), the T/C [10] was 113 % of control, the T/C [11] was 103 % of control and the T/C [12] was 113 % of control.
In the case of `Cc1ccc(S(=O)(=O)OC[C@H]2CCCC[C@H]2COS(=O)(=O)c2ccc(C)cc2)cc1`, the T/C (dose: 100.0 mg/kg/injection, schedule: Q04DX003 (ip), vehicle: Klucel (hydroxypropylcellulose) (HPC)) is reported as 113 % of control, the T/C (dose: 200.0 mg/kg/injection, schedule: Q04DX003 (ip), vehicle: Klucel (hydroxypropylcellulose) (HPC)) is reported as 114 % of control and the T/C (dose: 400.0 mg/kg/injection, schedule: Q04DX003 (ip), vehicle: Klucel (hydroxypropylcellulose) (HPC)) is reported as 119 % of control.
For `c1ccc(-n2ccnc2C2C3CCN2CC3)cc1` (centres undefined), the T/C (dose: 12.5 mg/kg/injection, schedule: Q01DX009 (ip), vehicle: saline) was 104 % of control, the T/C (dose: 25.0 mg/kg/injection, schedule: Q01DX009 (ip), vehicle: saline) was 104 % of control and the T/C [17] was 111 % of control and 97 % of control.
`CC(=O)/C(=C\c1ccc(Cl)c(Cl)c1)C(=O)CCN(C)C` was tested, and the T/C (dose: 12.5 mg/kg/injection, schedule: Q01DX005 (ip), vehicle: saline) was 110 % of control and 117 % of control, the T/C (dose: 25.0 mg/kg/injection, schedule: Q01DX005 (ip), vehicle: saline with Tween-80) was 117 % of control and the T/C (dose: 25.0 mg/kg/injection, schedule: Q01DX005 (ip), vehicle: saline) was 100 % of control and 107 % of control. The T/C [16] was 110 % of control and 111 % of control and the T/C [11] was 151 % of control.
`CC1COS(=O)(=O)CS(=O)(=O)O1` (centres undefined) was tested, and the T/C [15] was 100 % of control.
In the case of `COc1ccc(-c2nnc3cc(C)n4nnnc4n23)cc1OC`, the T/C [7] is reported as 100 % of control, the T/C [8] is reported as 96 % of control and the T/C [9] is reported as 94 % of control.
In the case of `ONC1CC(NO)CC(NO)C1` (centres undefined), the T/C (dose: 100.0 mg/kg/injection, schedule: Q01DX001 (ip), vehicle: saline) is reported as 117 % of control and the T/C (dose: 200.0 mg/kg/injection, schedule: Q01DX001 (ip), vehicle: saline) is reported as 110 % of control.
`C1CCCc2c(-c3noc4c3CCCCCC4)noc2CC1` was tested, and the T/C (dose: 60.0 mg/kg/injection, schedule: Q01DX005 (ip), vehicle: saline) was 98 % of control, the T/C (dose: 120.0 mg/kg/injection, schedule: Q01DX005 (ip), vehicle: saline) was 99 % of control and the T/C (dose: 240.0 mg/kg/injection, schedule: Q01DX005 (ip), vehicle: saline) was 108 % of control.
